Data: patent US20120083473A1, “TREATMENT OF CONDITIONS BY TOLL-LIKE RECEPTOR MODULATORS” (priority 2010, published 2012)

Tests used:
[1] = PK analysis after i.v. administration in mice; format: in vivo
[2] = tested on: murine peritoneal macrophages (PEC); test: Dose-response of M1 and M2 gene expression in PEC (RT PCR); format: cell-based, mice
Procedure: A third group of experiments was performed to investigate the dose-response effects of TMX, its potency as compared to classical inflammatory signals (e.g. LPS) and the activation of selected transcription factors playing an established role in tolerance, as well as in the induction of M1/M2 polarized inflammatory programs. PECs treated for 4 hours or 20 hours with 100 ng/mlof LPS or increased concentrations of TMX or 1V209 were analyzed by RT PCR for the expression of representative M1 (TNFα, IL-12p40) and M2 (IL-10, TGFβ) genes. […] In this experiment, as compared to 1V209, TMX is a lower inducer of M1 genes expression.
(§1) Cell Culture and treatments. Peritoneal exudate cells (PEC) were harvested from mice injected with 1 ml of 3% (w/v) thioglycollate medium (Difco, Detroit, Mich.) 4 days prior to isolation. PECs were incubated in RPMI 1640 medium, containing 10% fetal bovine serum, 2 mM glutamine and 100 U/ml of penicillin-streptomycin. The concentration for the different treatments were as follows: LPS (100 ng/ml) (Lipopolysaccharide from Salmonella Abortus Equi S-form, Alexis), CpG (1 μg/ml), Pam3CSK (2 μg/ml), Poly I:C (10 μg/ml), Loxorubine (100 μM), flagellin (100 ng/ml) IL-1β (20 ng/ml), TNF (20 ng/ml), IL-10 (20 ng/ml) (Peprotech), IFNγ (200 U/ml) (Peprotech). To induce TMX tolerance, cells were incubated in the presence of TMX (10 μM or 1 μM) for 20 hrs, washed and maintained in RPMI medium for 2 hrs and then re-challenged with TMX (10 μM) for 4 hrs. To induce TMX-tolerization (T/M) cells were treated with TMX for 20 hrs, washed and then maintained in medium for additional 6 hours, without TMX re-challenge. To induce M1-activation, cells were incubated in medium for 20 hrs, washed, left in medium for 2 hrs and finally stimulated with TMX (10 μM) for 4 hrs. Control cells (M/M) were cultured in medium for the entire period of the experiment. For gene expression analysis, total RNA was extracted from TMX treated and untreated cells with trizol (Invitrogen), according to the manufacturer's instructions. To analyze cytokines and chemokines production supernatants were collected 24 hrs after the second challenge with TMX.
Real-Time PCR. Total RNA was purified as previously described. Briefly, reverse transcription from 1 μg of RNA was performed using cDNA Archive kit (Applied Biosystem, NJ, USA). Real time PCR was performed using Power Syber Green PCR Master Mix (Applied Biosystem, NJ, USA) and detected by 7900HT Fast Real-Time System (Applied Biosystem, NJ, USA). Data were processed using the SDS2.2.2 software (Applied Biosystem, NJ, USA). Results were normalized to the expression of the housekeeping gene β-actin and then expressed as folds of upregulation, with respect to the control cell population.

NF-κB and STATs = NF-κB and STATs activity in TMX-tolerant macrophages (Western blot); format: cell-based, mice
Procedure: To investigate NF-κB and STATs activity upon TMX-mediated activation and tolerance, p65 and p50 NE-KB nuclear translocation and the levels of phospho-STATs proteins, respectively was analyzed. PEC treated 15 min with IFN-γ (500 U/mL) or with IL-10 (20 ng/ml) were used as positive controls for phospho-STAT1 and phospho-STAT3, respectively. In tolerance TMX 10 microM induces nuclear accumulation of p50 NF-kappaB and phosphorylation of STAT-3 (FIG. 6).
as §1, with “To analyze cytokines and chemokines production supernatants were collected 24 hrs after the second challenge with TMX.” left out
Western blot analysis. For the NF-κB proteins, nuclear and cytosolic extracts were analyzed by SDS/PAGE (10% acrylamide) as described. […] Then, optical density was determined by “Quantity One” software.

COCCOc1nc(N)c2nc(O)n(Cc3ccc(C(=O)NCCOCCOCCOCCOCCOCCOCCn4cc(CCC(=O)O)nn4)cc3)c2n1 [Compound 2]
AUC in comparison with Compound 3 [1]: lower
Cmax in comparison with Compound 3 [1]: lower
clearance in comparison with Compound 3 [1]: higher
half life in comparison with Compound 3 [1]: longer
most potent dose tested for the induction of both M1 and M2 genes ([2]; PEC): 30 µM
induction of both M1 and M2 gene expression ([2]; PECs treated 4 hours or 20 hours with increased concentrations): dose-dependent induction
induction of M1 genes expression as compared to 1V209 ([2]; PECs, 4 or 20 hours): lower inducer
activation of STAT-6 (NF-κB and STATs; any condition): No detectable activation
nuclear accumulation of p50 NF-kappaB (NF-κB and STATs; in tolerance, TMX 10 microM): induces
phosphorylation of STAT-3 (NF-κB and STATs; in tolerance, TMX 10 microM): induces
